Counter-ions that a name gives are not always drawn.
What was measured:
[1] = test system: Normal human fetal lung fibroblasts (WI-38); test: Fibroblast proliferation assay (neutral red staining); format: cell-based; settings: for decrease in fibroblast proliferation: DFO
Method: (§1) Normal human fetal lung fibroblasts (WI-38, Coriell Cell Repositories) were cultured and sub-cultured in DMEM, supplemented with 10% inactivated fetal bovine serum (FBS), 2 mM L-glutamine, 100 U/ml penicillin, 100 μg/ml streptomycin. Fibroblasts were grown to confluence in 25 cm^2 tissue flasks and sub-cultured after trypsinization (0.5% trypsin-EDTA in Hank's balanced solution without Ca^2+ and Mg^2+) at 37° C. in an atmosphere of 5% CO2. Two ml of trypsin were added to each flask and incubated for 5 min; then cultures were centrifuged (5 min, 1000 rpm) and fresh medium was added to the pellet. Splitting conditions were 1:4-1:6.
The proliferation rate of sub-confluent fibroblasts was evaluated by staining with neutral red (BioRad). Fibroblasts were seeded in 96-well plate (6×10^3/well) in 200 μl of supplemented DMEM/10% FBS. After overnight culture, wells were washed twice with supplemented DMEM/20% FBS. Then, either TGF-β (2-20 ng/ml) or deferoxamine mesylate (DFO, which leads to conditions of chemical hypoxia) at a concentration of […] was added in 200 μl of supplemented DMEM/2% FBS for either 16 hours, 24 hours, 72 hours, or 5 days.
In the case of glucose treatments, after overnight culture, cell-containing wells were washed twice with supplemented glucose-free DMEM/2% FBS. Working concentrations of glucose (5.5 mM, 15 mM, 27.5 mM, or 55 mM) were prepared by dissolving stock solution (110 mM) in supplemented DMEM without glucose/2% FBS. Prepared solutions of glucose were added to fibroblast cultures for either 24 or 72 hours.
Upon completion of incubation, cells were stained with 100 μl of 1% neutral red for 2 hours. After washing with cold PBS, fibroblast monolayers were fixed with 200 μl of ethanol-Sorenson buffer solution (1:1) for 10 min. Optical density was measured with an automated spectrophotometer (λ=540 nm).

Ax1 [2] = settings: vascular smooth muscle cells; cited from earlier work
mesangial cells = settings: together with the extracellular domain of Ax1; blockade of the Gas6-mediated pathway; cited from earlier work
Ax1 [3] = test: Western blot analysis of endogenous Ax1 expression after TGF-β stimulation; format: cell-based, rat
Method: FIG. 1. […] Lane 1: NRK 49F cells; Lane2: NRK 49F cells with TGF-β 5 ng/ml, 24 hr; Lane 3: Rat1 cells; Lane4: Rat1 cells+TGF-β 5 ng/ml, 24 hr; Lane 5: W138 cells; Lane 6: HeLa cells; Lane 7: 293 cells.
FIG. 2. […] Total cell lysates from Rat1 cells exposed to TGF-β stimulation (5 ng/ml for 15 minutes, 30 minutes, 60 minutes and 2 hours) were run on gel and probed with anti Ax1 C20 Ab (Western blot analysis). Samples in the first and last lane are from cells without TGF-β stimulation.
In order to verify the chip hybridization results, the response of endogenous Ax1 expression to TGF-β stimulation was monitored by Western blot analysis. Total cellular proteins from various cell lines, (of which Rat1 cell line was also stimulated by TGF-β (5 ng/ml for 24 hr) were extracted, and the expression of Ax1 was analyzed by Western blot analysis. Thirty (30) μg of total cellular lysate were run on an 8% SDS gel.
(§2) Further experiments were done on Rat1 cells that were serum starved for 24 hr and then stimulated for the indicated time (15 min-2 hr) with 5 ng/ml TGF-β.

[4] = test system: Normal human fetal lung fibroblasts (WI-38); test: Collagen production assay ([3H]-proline incorporation into collagenous proteins); format: cell-based; settings: concentrations of 2-20 ng/ml
Method: as §1
Collagen production by confluent fibroblast monolayers was assessed by [^3H]-proline incorporation into collagenous proteins. Fibroblasts were seeded in 24-well tissue culture plates (2×10^4/well) and grown in 1 ml of supplemented DMEM/10%FBS until confluence.
Confluent fibroblast cultures were incubated with prepared solutions for either 24 or 48 hr. […] The production of collagen was determined as the difference between total [^3H]proline-containing proteins in the sample incubated without collagenase and those left after collagenase digestion. To determine the number of cells in each well, fibroblasts were detached by trypsinization on the last day of the experiment, and counted in a hemocytometer. […]

Ax1 [5] = test: Microarray hybridization of treated human fibroblasts (Fibrosis DNA chip); format: cell-based; settings: TGF-β treatment of human fibroblasts
Method: Microarray-based analysis of gene expression was based on the analysis of human fibroblasts subject to selected stimuli resulting in changes in extracellular collagen accumulation and proliferation—the hallmarks of fibrosis. According to the present invention, a specific “Fibrosis” DNA chip was first prepared followed by a microarray hybridization experiments with 19 different types of probes. Analysis of the results was carried out by proprietary algorithms, and analysis of the selected set of genes was performed by using bioinformatics and the scienctific literature.
A dedicated human “Fibrosis” DNA chip was prepared according to assignee's SDGI method (PCT Application Publication No. WO 01/75180) from growth-arrested human fibroblasts.
Probes for microarray hybridization were derived from these treated fibroblasts. In accordance with the present invention, treatments that are relevant for diabetic nephropathy development were used, such as glucose deprivation or hypoxia (modeling ischemic conditions that develop in fibrotic kidney); high glucose (modeling diabetic hyperglycemia) and TGF-β induction (modeling a fibrotic condition that is characterized by growth factor and cytokine imbalance).
In the next step, the RNA from these treated fibroblasts was extracted and used for preparation of probes for microarray hybridization. The scheme of hybridization is presented below: […]

Ax1 [6] = test: Ax1 immunoprecipitation and anti-phosphotyrosine blot after TGF-β stimulation; format: cell-based, rat; settings: serum starved Rat1 cells, 5 ng/ml TGF-β, 15 min-2 hr
Method: FIG. 3. […] Rat1 cells exposed to TGF-β stimulation (5 ng/ml for 15 minutes, 30 minutes, 60 minutes and 2 hours) were used for immunoprecipitation. Ax1 was immunoprecipited with anti Ax1 M-20. Anti phosphotyrosine antibodies were used to monitor ax1 phosphorylation state following TGF-β treatment (5 ng/ml for 15 minutes-2 hr). Samples in the first and last lane are from cells without TGF-β stimulation.
as §2

CC(=O)N(O)CCCCCNC(=O)CCC(=O)N(O)CCCCCNC(=O)CCC(=O)N(O)CCCCCN [DFO, deferoxamine mesylate]
decrease in fibroblast proliferation ([1]; after 16 hr incubation): 20%
decrease in fibroblast proliferation ([1]; after 5 days of treatment): 80%

CCCCc1nc(Cl)c(CO)n1Cc1ccc(-c2ccccc2-c2nn[nH]n2)cc1 [losartan]
effect on angiotensin-stimulated Ax1 expression (Ax1 [2]): blocked the stimulatory effect of angiotensin on Ax1 expression

CC(=O)CC(c1ccccc1)c1c(O)c2ccccc2oc1=O (stereo not shown) [wafarin]
mesangial cell proliferation (mesangial cells): inhibit mesangial cell proliferation

TGF-β
endogenous Ax1 expression (Western blot) (Ax1 [3]; Rat1 cells, TGF-β 5 ng/ml for 24 hr): slight up-regulation
Ax1 protein level (Western blot) (Ax1 [3]; serum starved Rat1 cells, 5 ng/ml TGF-β, following 15 min): induces Ax1 protein level
enhancement in collagen production [4]: 110-180%
induction of Ax1 expression (Ax1 [5]): at least 2 fold
increase in the fibroblast proliferation rate ([1]; 2 and 20 ng/ml, after 24 hrs treatment): ~60%
Ax1 phosphorylation (Ax1 [6]): Increase in its phosphorylation
